Data set [1] in a line: overall biopharmaceutical properties / oral availability.
A further data set relates to HBV. As to the kind of experiment: HBV cell-based assay. On the set-up: species or system hepatitis B virus. The source says:
As described herein, compounds of the instant invention show surprising and exceptionally strong inhibition of viral replication, particularly HBV. […] In certain embodiments, the invention provides compounds capable of inhibiting viral replication, preferably HBV, at clinically relevant concentrations.
HBV cell-based assays for the evaluation of anti-viral activity against HBV are known in the art (see, e.g., Korba et al., Antiviral Res. 15:217, 1991; and Korba et al., Antiviral Res. 19:55, 1992). Moreover, the compounds of the invention can be useful research tools for in vitro and cell-based assays to study the biological mechanisms of viral infection, growth, and replication, preferably for HBV. By way of background and not wishing to be bound by theory, HBV replication is unusual in that this virus has a partially […] circular DNA (all of the minus DNA strand and part of the plus strand), but replicates by way of an RNA intermediate (typically, single-stranded viral DNA is converted to double stranded DNA, which serves as the template for viral replication). That is, when the virus enters the cell, the minus-strand DNA is transported to the cell nucleus, plus strand RNA is then transcribed from the DNA, the RNA is transported to the cytoplasm, and reverse transcriptase then synthesizes viral DNA from the RNA for packaging. […]

Molecules are shown by their SMILES.

The values that follow come from patent US20050026853A1, “Anti-viral 7-deaza D-nucleosides and uses thereof” (Micrologix Biotech Inc., priority 2002, published 2005).

Regarding `Nc1ncnc2c1c(F)cn2[C@H]1CC(O)[C@@H](CO)O1` (stereo partly drawn) [structure (II), 4-amino-5-fluoro-7-(2′-deoxy-β-D-erythro-pentofuranosyl) pyrrolo[2,3-d]pyrimidine], in data set [1], the oral availability entry is listed as “orally available” and the overall biopharmaceutical properties entry is reported as “good overall biopharmaceutical properties”. In addition, in the data set on HBV, the “anti-viral activity against HBV” value is “exhibit anti-viral activity against HBV”.
